# Experiment: Release (dissolution) profile of capsules, USP Apparatus 2 (paddle)
# Assay type: physicochemical
# From the text: USP Apparatus 2 (Paddle Apparatus) is described, for example, in the United States Pharmacopeial Convention, Feb. 1, 2012, Chapter <711> (“Dissolution”), incorporated by reference herein in its entirety. See http://www.usp.org/sites/default/files/usp_pdf/EN/USPNF/revisions/m99470-gc_711.pdf. The assembly from Apparatus 1 is used, except that a paddle formed from a blade and a shaft is used as the stirring element. The shaft is positioned so that its axis is not more than 2 mm from the vertical axis of the vessel at any point and rotates smoothly without significant wobble that could affect the results. The vertical center line of the blade passes through the axis of the shaft so that the bottom of the blade is flush with the bottom of the shaft. A distance of 25±2 mm between the bottom of the blade and the inside bottom of the vessel is maintained during the test. The metallic or suitably inert, rigid blade and shaft comprise a single entity. A suitable two-part detachable design may be used provided the assembly remains firmly engaged during the test. The paddle blade and shaft may be coated with a suitable coating so as to make them inert. The dosage unit is allowed to sink to the bottom of the vessel before rotation of the blade is started. A small, loose piece of nonreactive material, such as not more than a few turns of wire helix, may be attached to dosage units that would otherwise float. Other validated sinker devices may be used.
# Unless otherwise specified, the release profiles for capsules were measured using USP Apparatus 2 (paddle).
# All release profiles disclosed in Tables 3c-3p were measured with USP Apparatus 2 (paddle) at 50 rpm in 500 mL of aqueous sodium phosphate at a concentration of 0.05 M (pH=6.8). The values in a given table relate to capsules obtained from the same batch. Values shown represent mean values over a number of dissolution tests (“n” in each table) in each case.
structure (smiles),measurement,setting,value
"O=C(O)COC[C@H]1CC[C@H](COC(=O)N(c2ccccc2)c2ccc(Cl)cc2)CC1 [Compound 1, 2-(((1r,4r)-4-(((4-chlorophenyl)(phenyl)carbamoyloxy)methyl)cyclohexyl)methoxy)acetic acid]",mean value (n = 4) of % of Compound 1 released,"Table 3p: size 4 capsule, 0.5 mg Compound 1, Poloxamer 188:food grade GMS 30:70, 735 min",96.1%
same,mean value (n = 4) of % of Compound 1 released,"Table 3q: size 4 capsule, 0.5 mg Compound 1, Poloxamer 188:food grade GMS 30:70, 30 min",6.2%
same,mean value (n = 4) of % of Compound 1 released,"Table 3q: size 4 capsule, 0.5 mg Compound 1, Poloxamer 188:food grade GMS 30:70, 60 min",13.7%
same,mean value (n = 4) of % of Compound 1 released,"Table 3q: size 4 capsule, 0.5 mg Compound 1, Poloxamer 188:food grade GMS 30:70, 120 min",27.3%
same,mean value (n = 4) of % of Compound 1 released,"Table 3q: size 4 capsule, 0.5 mg Compound 1, Poloxamer 188:food grade GMS 30:70, 180 min",40.3%
same,mean value (n = 4) of % of Compound 1 released,"Table 3q: size 4 capsule, 0.5 mg Compound 1, Poloxamer 188:food grade GMS 30:70, 240 min",52.5%
same,mean value (n = 4) of % of Compound 1 released,"Table 3q: size 4 capsule, 0.5 mg Compound 1, Poloxamer 188:food grade GMS 30:70, 360 min",74.2%
same,mean value (n = 4) of % of Compound 1 released,"Table 3q: size 4 capsule, 0.5 mg Compound 1, Poloxamer 188:food grade GMS 30:70, 480 min",85.5%
same,mean value (n = 4) of % of Compound 1 released,"Table 3q: size 4 capsule, 0.5 mg Compound 1, Poloxamer 188:food grade GMS 30:70, 600 min",91.5%
same,mean value (n = 4) of % of Compound 1 released,"Table 3q: size 4 capsule, 0.5 mg Compound 1, Poloxamer 188:food grade GMS 30:70, 720 min",93.4%
same,mean value (n = 4) of % of Compound 1 released,"Table 3q: size 4 capsule, 0.5 mg Compound 1, Poloxamer 188:food grade GMS 30:70, 735 min",94.5%
same,mean value (n = 6) of % of Compound 1 released,"Table 3r: size 4 capsule, 0.03 mg Compound 1, Poloxamer 188:food grade GMS 30:70, 60 min",11%
same,mean value (n = 6) of % of Compound 1 released,"Table 3r: size 4 capsule, 0.03 mg Compound 1, Poloxamer 188:food grade GMS 30:70, 120 min",23%
same,mean value (n = 6) of % of Compound 1 released,"Table 3r: size 4 capsule, 0.03 mg Compound 1, Poloxamer 188:food grade GMS 30:70, 180 min",33%
same,mean value (n = 6) of % of Compound 1 released,"Table 3r: size 4 capsule, 0.03 mg Compound 1, Poloxamer 188:food grade GMS 30:70, 240 min",43%
same,mean value (n = 6) of % of Compound 1 released,"Table 3r: size 4 capsule, 0.03 mg Compound 1, Poloxamer 188:food grade GMS 30:70, 360 min",62%
same,mean value (n = 6) of % of Compound 1 released,"Table 3r: size 4 capsule, 0.03 mg Compound 1, Poloxamer 188:food grade GMS 30:70, 480 min",77%
same,mean value (n = 6) of % of Compound 1 released,"Table 3r: size 4 capsule, 0.03 mg Compound 1, Poloxamer 188:food grade GMS 30:70, 600 min",87%
same,mean value (n = 6) of % of Compound 1 released,"Table 3r: size 4 capsule, 0.03 mg Compound 1, Poloxamer 188:food grade GMS 30:70, 720 min",91%
same,mean value (n = 6) of % of Compound 1 released,"Table 3r: size 4 capsule, 0.03 mg Compound 1, Poloxamer 188:food grade GMS 30:70, 840 min",95%
same,mean value (n = 6) of % of Compound 1 released,"Table 3s-1: Storage time = 0, size 4 capsule, 0.03 mg Compound 1, Poloxamer 188:food grade GMS 30:70, 60 min",16.7%
same,mean value (n = 6) of % of Compound 1 released,"Table 3s-1: Storage time = 0, size 4 capsule, 0.03 mg Compound 1, Poloxamer 188:food grade GMS 30:70, 120 min",27.5%
same,mean value (n = 6) of % of Compound 1 released,"Table 3s-1: Storage time = 0, size 4 capsule, 0.03 mg Compound 1, Poloxamer 188:food grade GMS 30:70, 180 min",38.3%
same,mean value (n = 6) of % of Compound 1 released,"Table 3s-1: Storage time = 0, size 4 capsule, 0.03 mg Compound 1, Poloxamer 188:food grade GMS 30:70, 240 min",50.3%
same,mean value (n = 6) of % of Compound 1 released,"Table 3s-1: Storage time = 0, size 4 capsule, 0.03 mg Compound 1, Poloxamer 188:food grade GMS 30:70, 360 min",72.3%
same,mean value (n = 6) of % of Compound 1 released,"Table 3s-1: Storage time = 0, size 4 capsule, 0.03 mg Compound 1, Poloxamer 188:food grade GMS 30:70, 480 min",88.7%
same,mean value (n = 6) of % of Compound 1 released,"Table 3s-1: Storage time = 0, size 4 capsule, 0.03 mg Compound 1, Poloxamer 188:food grade GMS 30:70, 600 min",96.0%
same,mean value (n = 6) of % of Compound 1 released,"Table 3s-2: Storage time = 2 weeks, size 4 capsule, 0.03 mg Compound 1, Poloxamer 188:food grade GMS 30:70, 60 min",16.0%
same,mean value (n = 6) of % of Compound 1 released,"Table 3s-2: Storage time = 2 weeks, size 4 capsule, 0.03 mg Compound 1, Poloxamer 188:food grade GMS 30:70, 120 min",27.7%
same,mean value (n = 6) of % of Compound 1 released,"Table 3s-2: Storage time = 2 weeks, size 4 capsule, 0.03 mg Compound 1, Poloxamer 188:food grade GMS 30:70, 180 min",39.7%
same,mean value (n = 6) of % of Compound 1 released,"Table 3s-2: Storage time = 2 weeks, size 4 capsule, 0.03 mg Compound 1, Poloxamer 188:food grade GMS 30:70, 240 min",52.2%
same,mean value (n = 6) of % of Compound 1 released,"Table 3s-2: Storage time = 2 weeks, size 4 capsule, 0.03 mg Compound 1, Poloxamer 188:food grade GMS 30:70, 360 min",74.6%
same,mean value (n = 6) of % of Compound 1 released,"Table 3s-2: Storage time = 2 weeks, size 4 capsule, 0.03 mg Compound 1, Poloxamer 188:food grade GMS 30:70, 480 min",89.4%
same,mean value (n = 6) of % of Compound 1 released,"Table 3s-2: Storage time = 2 weeks, size 4 capsule, 0.03 mg Compound 1, Poloxamer 188:food grade GMS 30:70, 600 min",96.7%
same,mean value (n = 6) of % of Compound 1 released,"Table 3h: size 4 capsule, 0.03 mg Compound 1, Poloxamer 188:food grade GMS 50:50, 60 min",17.9%
same,mean value (n = 6) of % of Compound 1 released,"Table 3h: size 4 capsule, 0.03 mg Compound 1, Poloxamer 188:food grade GMS 50:50, 120 min",35.9%
same,mean value (n = 6) of % of Compound 1 released,"Table 3h: size 4 capsule, 0.03 mg Compound 1, Poloxamer 188:food grade GMS 50:50, 180 min",51.7%
same,mean value (n = 6) of % of Compound 1 released,"Table 3h: size 4 capsule, 0.03 mg Compound 1, Poloxamer 188:food grade GMS 50:50, 240 min",67.9%
same,mean value (n = 6) of % of Compound 1 released,"Table 3h: size 4 capsule, 0.03 mg Compound 1, Poloxamer 188:food grade GMS 50:50, 300 min",83.6%
same,mean value (n = 6) of % of Compound 1 released,"Table 3h: size 4 capsule, 0.03 mg Compound 1, Poloxamer 188:food grade GMS 50:50, 360 min",92.3%
same,mean value (n = 6) of % of Compound 1 released,"Table 3h: size 4 capsule, 0.03 mg Compound 1, Poloxamer 188:food grade GMS 50:50, 480 min",98.1%
same,mean value (n = 4) of % of Compound 1 released,"Table 3d: size 4 capsule, 0.5 mg Compound 1, Poloxamer 188:food grade GMS 70:30, 30 min",13.8%
same,mean value (n = 4) of % of Compound 1 released,"Table 3d: size 4 capsule, 0.5 mg Compound 1, Poloxamer 188:food grade GMS 70:30, 60 min",60.2%
same,mean value (n = 4) of % of Compound 1 released,"Table 3d: size 4 capsule, 0.5 mg Compound 1, Poloxamer 188:food grade GMS 70:30, 120 min",92.1%
same,release rate relative to immediate release composition,"capsule, Gelucire 50/13:Kolliphor RH40 50:50 (FIG. 3)",substantially reduced
same,change of release rate after storage,"capsule, Gelucire 50/13:Kolliphor RH40 75:25, storage at 40° C. and 75% RH over time (FIG. 4)",significantly increased
same,"release rate, 90:10 ratio relative to 80:20 ratio","capsule, Gelucire 50/13:Kolliphor RH40 90:10 vs 80:20 (FIG. 3)",further reduced
same,effect of curing in stabilizing the release profile,research grade GMS (lower monoester content) instead of food grade GMS,not as effective

# From US12433865B2, “Compositions comprising PGI2-receptor agonists and processes for the preparation thereof” (Arena Pharmaceuticals, Inc., priority 2018, dated 2025)
